In ChEMBL document CHEMBL1759941, “Discovery of pyrrolo[2,3-d]pyrimidin-4-ones as corticotropin-releasing factor 1 receptor antagonists with a carbonyl-based hydrogen bonding acceptor” (Bioorg Med Chem Lett, 2011):

Key:
[1] = molecular target: T1, Corticotropin-releasing factor receptor 1 (Homo sapiens, UniProt P34998); experiment: Displacement of ovine [125I]CRF from human CRF1 receptor expressed in CHO cells; assay type: cell-based
T1 sequence (P34998 whole entry): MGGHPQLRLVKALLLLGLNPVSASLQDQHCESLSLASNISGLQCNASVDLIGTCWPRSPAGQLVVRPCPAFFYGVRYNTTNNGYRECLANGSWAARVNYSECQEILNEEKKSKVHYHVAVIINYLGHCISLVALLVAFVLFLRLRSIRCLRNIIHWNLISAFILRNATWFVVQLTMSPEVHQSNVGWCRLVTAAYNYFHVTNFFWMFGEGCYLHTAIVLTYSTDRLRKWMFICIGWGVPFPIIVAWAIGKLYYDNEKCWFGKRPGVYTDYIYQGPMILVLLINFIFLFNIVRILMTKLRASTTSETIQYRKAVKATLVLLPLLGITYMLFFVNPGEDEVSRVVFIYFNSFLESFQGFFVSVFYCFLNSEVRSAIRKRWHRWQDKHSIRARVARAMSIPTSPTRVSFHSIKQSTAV

Mus musculus [2] = experiment: Ex vivo displacement of [125I]-sauvagine from CRF1 receptor in mouse Olfactory bulb at 30 mg/kg, po administered 60 mins before mouse decapitation and measured after 2 hrs by gamma scintillation counting; assay type: functional
[3] = Ratio of drug uptake in brain to plasma of mouse at 30 mg/kg, po; assay type: ADME, organism-based; design: dose 30 mg/kg, route oral; conditions: read-out: BBB
Mus musculus [4] = experiment: Ex vivo displacement of [125I]-sauvagine from CRF1 receptor in mouse pituitary gland at 30 mg/kg, po administered 60 mins before mouse decapitation and measured after 2 hrs by gamma scintillation counting; assay type: functional
Mus musculus [5] = experiment: Ex vivo displacement of [125I]-sauvagine from CRF1 receptor in mouse frontal cortex at 30 mg/kg, po administered 60 mins before mouse decapitation and measured after 2 hrs by gamma scintillation counting; assay type: functional

Row | IC50 [1] [µM] | SMILES | also measured
1 | 3.1 | CCCN(CCC)c1nc2c(c(-c3c(OC)cc(OC)cc3OC)cn2C)c(=O)n1C | 
2 | 0.12 | CCCN(CCC)c1nc2c(c(-c3c(C)cc(C)cc3C)cn2C)c(=O)n1C | inhibition in vivo at 30 mg/kg (Mus musculus [2]): 22%; Kp [3]: 0.42; inhibition in vivo at 30 mg/kg (Mus musculus [4]): 53%; inhibition in vivo at 30 mg/kg (Mus musculus [5]): 35%
3 | 0.97 | CCCCN(CCCC)c1nc2c(c(-c3c(C)cc(C)cc3C)cn2C)c(=O)n1C | 
4 | 3.3 | CCCN(CCC)c1nc2c(c(-c3ccc(C)cc3C)c(C)n2C)c(=O)n1C | 
5 | 3 | CCCN(CCC)c1nc2c(c(-c3ccc(OC)cc3OC)cn2C)c(=O)n1C | 
6 | 1.6 | CCCN(CCC)c1nc2c(c(-c3ccc(C)cc3C)cn2C)c(=O)n1C | 

The next lines start with the compound.

Row | SMILES | IC50 [1] [µM] | also measured
7 | Cc1cc(C)c(-c2cn(C)c3nc(N4CCCCC4)n(C)c(=O)c23)c(C)c1 | 3.8 | 
8 | CCCCN(CC)c1nc(C)nc2c1c(C)cn2-c1c(C)cc(C)cc1C [CP-154526] | 0.011 | 
9 | Cc1cc(C)c(-c2cn(C)c3nc(N(CC4CC4)CC4CC4)n(C)c(=O)c23)c(C)c1 | 0.14 | 
10 | CCN(CC)c1nc2c(c(-c3c(C)cc(C)cc3C)cn2C)c(=O)n1C | 7.7 | 
11 | CCCN(CCC)c1nc2c(c(-c3c(C)cc(C)cc3C)c(C)n2C)c(=O)n1C | 1.1 | 
12 | CCC(CC)Oc1cc(C)nc(Oc2c(C)cc(C)cc2C)c1C | 0.092 | 
13 | CCCN(CCC)c1nc2c(c(-c3ccc(C(F)(F)F)cc3C(F)(F)F)cn2C)c(=O)n1C | 3 | 
